The source of these data is article PMC3855619 (Biochemistry, 2013).

This assay has as its target GI 77862362; decaprenyl diphosphate synthase [Rhodobacter capsulatus] (Rhodobacter capsulatus, UniProt Q07D00). Description: product chain-length by TLC with […]IPP. The format is biochemical.

Sequence of GI 77862362; decaprenyl diphosphate synthase [Rhodobacter capsulatus] (Q07D00 1-333): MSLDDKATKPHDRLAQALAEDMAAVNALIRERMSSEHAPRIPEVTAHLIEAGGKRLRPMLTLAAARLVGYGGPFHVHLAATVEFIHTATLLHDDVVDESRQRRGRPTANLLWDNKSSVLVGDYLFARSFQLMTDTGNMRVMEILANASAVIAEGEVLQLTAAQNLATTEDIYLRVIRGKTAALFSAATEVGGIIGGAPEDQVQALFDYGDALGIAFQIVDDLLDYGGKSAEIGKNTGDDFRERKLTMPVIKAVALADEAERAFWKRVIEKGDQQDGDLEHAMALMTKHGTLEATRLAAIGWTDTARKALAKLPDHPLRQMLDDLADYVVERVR

For the compound `C=C(C)CCOP(=O)(O)OP(=O)(O)O` [IPP], the “product chain-length by TLC with [14C]IPP” value is “different ratios of IPP:DMAPP and IPP:FPP”.
